# In US10633419B2, “Immunomodulators” (BRISTOL-MYERS SQUIBB COMPANY, priority 2014, dated 2020):
# pIC50: −log10 of the molar value. Starred links: 1 amine or outer side, 2 acyl side, 3 side chain; linkers in the order of their positions; H or OH if unused. Positions of bridges follow the written chain, without caps; N, C: chain ends. Non-standard residues stand in square brackets, D forms with d. Residues, ends and D or L forms follow the SMILES beside them. *: point of attachment. X6 = O=C(O)CCCCCCCCCCCCCCCCC(=O)N[C@@H](CCC(=O)NCCCOCCOCCOCCCN*)C(=O)O; X7 = CCCCCCCCCCCCCCCCNC(=O)[C@H](CC(=O)O)NC(=O)CCC(=O)NCCCOCCOCCOCCCN*; Trp(1-CH2COOH) = N[C@@H](Cc1cn(CC(=O)O)c2ccccc12)C(=O)O; X24 = O=C(C[C@@H](Cc1ccc(O)cc1)C(=O)[*:1])C[*:2]; NH(CH2)14COOH = O=C(O)CCCCCCCCCCCCCCN*; d(cisHyp) = O=C(O)[C@H]1C[C@@H](O)CN1; NH(CH2)12COOH = O=C(O)CCCCCCCCCCCCN*; PEG6 = NCCOCCOCCOCCOCCOCCOCCC(=O)O; cisHyp = O=C(O)[C@@H]1C[C@H](O)CN1; Hyp = O=C(O)[C@@H]1C[C@@H](O)CN1; Undecanoyl = CCCCCCCCCCC(=O)*; NMeNle = CCCC[C@H](NC)C(=O)O; NMeA = CN[C@@H](C)C(=O)O; Pra = C#CC[C@H](N)C(=O)O; Aun = NCCCCCCCCCCC(=O)O; Dab = NCC[C@H](N)C(=O)O; Dap = NC[C@H](N)C(=O)O; Sar = CNCC(=O)O
# Biological target: T1, PD-L1 (Homo sapiens, UniProt Q9NZQ7)
# T1 construct: hPDL1(19-239)-TVMV-His; made in house; host or cells: HEK293T
# Assay: PD-1/PD-L1 Homogenous Time-Resolved Fluorescence (HTRF) binding assay (PD-1-Ig/PD-L1-His)
# Details: not given
# How it was run: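 HTRF competition in dPBS with 0.1% BSA and 0.05% Tween-20: 20 nM PD-1-Ig added after 15 min compound pre-incubation with 10 nM PD-L1-His, then another 15 min. Signal (665/620 nm) after 30 min with APC anti-His (20 nM) and Eu anti-Ig (1 nM).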
# T1 sequence (Q9NZQ7 with tags, fused parts or gaps): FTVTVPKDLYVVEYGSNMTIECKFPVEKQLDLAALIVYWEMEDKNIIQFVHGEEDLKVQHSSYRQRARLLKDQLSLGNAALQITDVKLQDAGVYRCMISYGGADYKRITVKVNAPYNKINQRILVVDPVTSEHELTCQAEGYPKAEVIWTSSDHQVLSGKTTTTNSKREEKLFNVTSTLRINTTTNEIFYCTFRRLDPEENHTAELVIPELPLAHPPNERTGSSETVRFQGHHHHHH
row,Compound,pIC50
1,CCCC[C@H]1C(=O)N(C)[C@@H](CCCC)C(=O)N[C@@H](CCC(=O)O)C(=O)N[C@H](C(=O)NCC(=O)N[C@@H](Cc2cn(CCOCCOCCOCCOCCOCCOCCOCCOC(=O)CCC(=O)Oc3c(C)c(C)c4c(c3C)CC[C@@](C)(CCC[C@H](C)CCC[C@H](C)CCCC(C)C)O4)nn2)C(=O)NCC(N)=O)CSCC(=O)N[C@@H](Cc2ccc(O)cc2)C(=O)N(C)[C@@H](C)C(=O)N[C@@H](CC(=O)O)C(=O)N2CCC[C@H]2C(=O)N[C@@H](Cc2c[nH]cn2)C(=O)N[C@@H](CCCCN)C(=O)N2C[C@H](O)C[C@H]2C(=O)N[C@@H](Cc2c[nH]c3ccccc23)C(=O)N[C@@H](CCCCN)C(=O)N[C@@H](Cc2c[nH]c3ccccc23)C(=O)N1C [Example 14052],7.00 to 8.00

# Same assay, conditions: inhibition of PD-1-Ig binding to PD-L1-TVMV-His; value given as range class; read-out: HTRF IC50
row,Compound,pIC50
1,CCCC[C@H]1C(=O)N(C)[C@@H](CCCC)C(=O)N[C@@H](CC(C)C)C(=O)N[C@H](C(=O)NCCCCCCCCCCC(=O)N[C@@H](CC(=O)O)C(=O)O)CSCC(=O)N[C@@H](Cc2ccc(O)cc2)C(=O)N(C)[C@@H](C)C(=O)N[C@@H](CC(N)=O)C(=O)N2CCC[C@H]2C(=O)N[C@@H](Cc2cnc[nH]2)C(=O)N[C@@H](CCC(=O)O)C(=O)N2C[C@H](O)C[C@H]2C(=O)N[C@@H](Cc2c[nH]c3ccccc23)C(=O)N[C@@H](CCN)C(=O)N[C@@H](Cc2c[nH]c3ccccc23)C(=O)N1C [Example 11129] ({CH2CO}-Y[NMeA]NPHE[Hyp]W[Dab]W[NMeNle][NMeNle]LC[Aun]D-OH; thioether N-14),7.00 to 8.00
2,CCCCCCCCCCC(=O)NCCCC[C@H](NC(=O)CCOCCOCCOCCOCCOCCOCCNC(=O)[C@@H]1CSCC(=O)C[C@@H](Cc2ccc(O)cc2)C(=O)N(C)[C@@H](C)C(=O)N[C@@H](CC(N)=O)C(=O)N2CCC[C@H]2C(=O)N[C@@H](Cc2cnc[nH]2)C(=O)N[C@@H](CCC(=O)O)C(=O)N2C[C@H](O)C[C@H]2C(=O)N[C@@H](Cc2c[nH]c3ccccc23)C(=O)N[C@@H](CCN)C(=O)N[C@@H](Cc2cn(CC(=O)O)c3ccccc23)C(=O)N(C)[C@@H](CCCC)C(=O)N(C)[C@@H](CCCC)C(=O)N[C@@H](CC(C)C)C(=O)N1)C(N)=O [Example 11012] ([NMeA]NPHE[Hyp]W[Dab][Trp(1-CH2COOH)][NMeNle][NMeNle]LC[PEG6]K(Undecanoyl)-NH2; linker N-13 via X24),7.00 to 8.00
3,CCCCCCCCCCCCCCCCNC(=O)[C@H](CC(=O)O)NC(=O)CCC(=O)NCCCOCCOCCOCCCNC(=O)CNC(=O)[C@@H]1CSCC(=O)N[C@@H](Cc2ccc(O)cc2)C(=O)N(C)[C@@H](C)C(=O)N[C@@H](CC(=O)O)C(=O)N2CCC[C@H]2C(=O)N[C@@H](Cc2cnc[nH]2)C(=O)N[C@@H](CC(C)C)C(=O)N2C[C@H](O)C[C@H]2C(=O)N[C@@H](Cc2c[nH]c3ccccc23)C(=O)N[C@@H](CO)C(=O)N[C@@H](Cc2c[nH]c3ccccc23)C(=O)N(C)[C@@H](CCCC)C(=O)N(C)[C@@H](CCCC)C(=O)N[C@@H](CCCNC(=N)N)C(=O)N1 [Example 11128] ({CH2CO}-Y[NMeA]DPHL[Hyp]WSW[NMeNle][NMeNle]RCG-X7; thioether N-14),7.00 to 8.00
4,CCCC[C@H]1C(=O)N(C)[C@@H](CCCC)C(=O)N[C@@H](CC(C)C)C(=O)N[C@H](C(=O)NCC(=O)N[C@@H](CCC(=O)NCCCOCCOCCOCCCNC(=O)CC[C@H](NC(=O)CCCCCCCCCCCCCCCCC(=O)O)C(=O)O)C(=O)O)CSCC(=O)N[C@@H](Cc2ccc(O)cc2)C(=O)N(C)[C@@H](C)C(=O)N[C@@H](CC(N)=O)C(=O)N2CCC[C@H]2C(=O)N[C@@H](CN)C(=O)N[C@@H](CC(C)C)C(=O)N2C[C@H](O)C[C@@H]2C(=O)N[C@@H](Cc2c[nH]c3ccccc23)C(=O)N[C@@H](CCN)C(=O)N[C@@H](Cc2cn(CC(=O)O)c3ccccc23)C(=O)N1C [Example 11163] ({CH2CO}-Y[NMeA]NP[Dap]L[d(cisHyp)]W[Dab][Trp(1-CH2COOH)][NMeNle][NMeNle]LCGE(X6)-OH; thioether N-14),8.00 to 9.52
5,CCCC[C@H]1C(=O)N(C)[C@@H](CCCC)C(=O)N[C@@H](CC(C)C)C(=O)N[C@H](C(=O)NCC(=O)N[C@H](CC(=O)O)C(=O)NCC(=O)NCCCCCCCCCCC(=O)O)CSCC(=O)N[C@@H](Cc2ccc(O)cc2)C(=O)N(C)[C@@H](C)C(=O)N[C@@H](CC(N)=O)C(=O)N2CCC[C@H]2C(=O)N[C@@H](CN)C(=O)N[C@@H](CC(C)C)C(=O)N2C[C@H](O)C[C@H]2C(=O)N[C@@H](Cc2c[nH]c3ccccc23)C(=O)N[C@@H](CCN)C(=O)N[C@@H](Cc2cn(CC(=O)O)c3ccccc23)C(=O)N1C [Example 11100] ({CH2CO}-Y[NMeA]NP[Dap]L[Hyp]W[Dab][Trp(1-CH2COOH)][NMeNle][NMeNle]LCG[dD]G[Aun]-OH; thioether N-14),7.00 to 8.00

# Results, then the molecule that gave them:
row,pIC50,Compound
1,7.00 to 8.00,CCCC[C@H]1C(=O)N(C)[C@@H](CCCC)C(=O)N[C@@H](CCC(=O)O)C(=O)N[C@H](C(=O)NCC(=O)N[C@@H](CC(=O)NCCCOCCOCCOCCCNC(=O)CC[C@H](NC(=O)CCCCCCCCCCCCCCCCC(=O)O)C(=O)O)C(=O)O)CSCC(=O)N[C@@H](Cc2ccc(O)cc2)C(=O)N(C)[C@@H](C)C(=O)N[C@@H](CC(=O)O)C(=O)N(C)CC(=O)N[C@@H](Cc2c[nH]cn2)C(=O)N[C@@H](CCCCN)C(=O)N2C[C@H](O)C[C@H]2C(=O)N[C@@H](Cc2c[nH]c3ccccc23)C(=O)N[C@@H](CCN)C(=O)N[C@@H](Cc2cn(CC(=O)O)c3ccccc23)C(=O)N1C [Example 11174] ({CH2CO}-Y[NMeA]D[Sar]HK[Hyp]W[Dab][Trp(1-CH2COOH)][NMeNle][NMeNle]ECGD(X6)-OH; thioether N-14)
2,5.80 to 7.00,C=C1N[C@@H](Cc2c[nH]c3ccccc23)C(=O)N[C@@H](CCN)C(=O)N[C@@H](Cc2cn(CC(=O)O)c3ccccc23)C(=O)N(C)[C@@H](CCCC)C(=O)N(C)[C@@H](CCCC)C(=O)N[C@@H](CC(C)C)C(=O)N[C@H](C(=O)NCC(=O)N[C@@H](CC(=O)NCCOCCOCCOCCOCCOCCOCCC(=O)NC[C@H](NC(=O)CCCCCCCCCCCCCCCCC(=O)O)C(=O)O)C(=O)O)CSCC(=O)N[C@@H](Cc2ccc(O)cc2)C(=O)N(C)[C@@H](C)C(=O)N[C@@H](CC(N)=O)C(=O)N2CCC[C@H]2C(=O)N[C@@H](CN)C(=O)N[C@@H](CC(C)C)C(=O)N2C[C@H](O)C[C@@]12O [Example 11183]
3,7.00 to 8.00,CCCC[C@H]1C(=O)N(C)[C@@H](CCCC)C(=O)N[C@@H](CC(=O)O)C(=O)N[C@H](C(=O)N[C@@H](Cc2cn(CCC(NC(=O)CCCCCCCCCCCCCCCCC(=O)O)C(=O)O)nn2)C(=O)O)CSCC(=O)N[C@@H](Cc2ccc(O)cc2)C(=O)N(C)[C@@H](C)C(=O)N[C@@H](CC(N)=O)C(=O)N2CCC[C@H]2C(=O)N[C@@H](CN)C(=O)N[C@@H](CC(C)C)C(=O)N2C[C@H](O)C[C@H]2C(=O)N[C@@H](Cc2c[nH]c3ccccc23)C(=O)N[C@@H](CCN)C(=O)N[C@@H](Cc2cn(CC(=O)O)c3ccccc23)C(=O)N1C (stereo partly shown) [Example 13131]
4,7.00 to 8.00,CCCC[C@H]1C(=O)N(C)[C@@H](CCCC)C(=O)N[C@@H](CC(C)C)C(=O)N[C@H](C(=O)NCCCCCCCCCCCCC(=O)O)CSCC(=O)N[C@@H](Cc2ccc(O)cc2)C(=O)N(C)[C@@H](C)C(=O)N[C@@H](CC(N)=O)C(=O)N2CCC[C@@H]2C(=O)N[C@@H](CN)C(=O)N[C@@H](CC(C)C)C(=O)N2C[C@@H](O)C[C@H]2C(=O)N[C@@H](Cc2c[nH]c3ccccc23)C(=O)N[C@@H](CCN)C(=O)N[C@@H](Cc2cn(CC(=O)O)c3ccccc23)C(=O)N1C [Example 11204] ({CH2CO}-Y[NMeA]N[dP][Dap]L[cisHyp]W[Dab][Trp(1-CH2COOH)][NMeNle][NMeNle]LC-{NH(CH2)12COOH}; thioether N-14)
5,8.00 to 9.52,C#CC[C@H](NC(=O)CNC(=O)[C@@H]1CSCC(=O)N[C@@H](Cc2ccc(O)cc2)C(=O)N(C)[C@@H](C)C(=O)N[C@@H](CC(=O)O)C(=O)N2CCC[C@H]2C(=O)N[C@@H](Cc2c[nH]cn2)C(=O)N[C@@H](CCCCN)C(=O)N2C[C@H](O)C[C@H]2C(=O)N[C@@H](Cc2c[nH]c3ccccc23)C(=O)N[C@@H](CCCCN)C(=O)N[C@@H](Cc2c[nH]c3ccccc23)C(=O)N(C)[C@@H](CCCC)C(=O)N(C)[C@@H](CCCC)C(=O)N[C@@H](CCC(=O)O)C(=O)N1)C(=O)N[C@@H](CC(=O)O)C(N)=O [INT 1400B] ({CH2CO}-Y[NMeA]DPHK[Hyp]WKW[NMeNle][NMeNle]ECG[Pra]D-NH2; thioether N-14)
6,7.00 to 8.00,CCCC[C@H]1C(=O)N(C)[C@@H](CCCC)C(=O)N[C@@H](CC(C)C)C(=O)N[C@H](C(=O)NCC(=O)NCC(=O)NCCCCCCCCCCCCCCC(=O)O)CSCC(=O)N[C@@H](Cc2ccc(O)cc2)C(=O)N(C)[C@@H](C)C(=O)N[C@@H](CC(N)=O)C(=O)N2CCC[C@H]2C(=O)N[C@@H](CN)C(=O)N[C@@H](CC(C)C)C(=O)N2C[C@H](O)C[C@H]2C(=O)N[C@@H](Cc2c[nH]c3ccccc23)C(=O)N[C@@H](CCN)C(=O)N[C@@H](Cc2cn(CC(=O)O)c3ccccc23)C(=O)N1C [Example 11194] ({CH2CO}-Y[NMeA]NP[Dap]L[Hyp]W[Dab][Trp(1-CH2COOH)][NMeNle][NMeNle]LCGG-{NH(CH2)14COOH}; thioether N-14)
7,5.80 to 7.00,CCCC[C@H]1C(=O)N(C)[C@@H](CCCC)C(=O)N[C@@H](CCC(=O)O)C(=O)N[C@H](C(=O)NCC(=O)N[C@@H](Cc2cn(CCOCCOCCOCCOCCOCCOCCOCCOCCOCCOCCOCCNC(=O)CC[C@H](NC(=O)CCCCCCCCCCCCCCCCC(=O)O)C(=O)O)nn2)C(=O)O)CSCC(=O)N[C@@H](Cc2ccc(O)cc2)C(=O)N2CCCC[C@H]2C(=O)N[C@@H](CC(N)=O)C(=O)N2CCC[C@H]2C(=O)N[C@@H](CN)C(=O)N[C@@H](CC(C)C)C(=O)N2C[C@H](O)C[C@H]2C(=O)N[C@@H](Cc2c[nH]c3ccccc23)C(=O)N[C@@H](CCN)C(=O)N[C@@H](Cc2cn(CC(=O)O)c3ccccc23)C(=O)N1C [Example 14106]
